According to patent US12227494B2, “Polymorphisms of HM30181 mesylate” (ATHENEX R&D, LLC, priority 2020, dated 2025):

Test: Dynamic Vapor Sorption (DVS) with XRPD post-DVS
Type: physicochemical
Details: for Hygroscopicity by DVS (in words) / Water absorbed by DVS: 0-95% RH
Description: XRPD was performed using a Panalytical X'Pert3™ Powder XRPD and on a Si zero-background holder. The 2θ position was calibrated against a Panalytical™ 640 Si powder standard. Details of XRPD used in the experiments are listed below in Table 20.
Dynamic Vapor Sorption (DVS) was measured using a SMS (Surface Measurement Systems™) DVS Intrinsic. Parameters for DVS test are listed below in Table 24.

## COc1cc2c(cc1OC)CN(CCc1ccc(-n3nnc(-c4cc(OC)c(OC)cc4NC(=O)c4cc(=O)c5ccccc5o4)n3)cc1)CC2.CS(=O)(=O)O [HM30181 mesylate Type A, HM30181 mesylate]
  Hygroscopicity by DVS (in words): hygroscopic
  Water absorbed by DVS: 2.26%
Listed as Type A
  Hygroscopicity by DVS (in words): Monohydrate (hygroscopic
  Water absorbed by DVS: to 2.26% at 95% RH)
After DVS 0-95% RH
  XRPD pattern post-DVS: no change in XRPD pattern observed
